Measurements as given in patent US20170022201A1, “MACROCYLIC PYRIDINE DERIVATIVES” (Janssen Pharmaceutica NV, priority 2014, published 2017).

Experiments:
EF2K = molecular target: T1, EF2K (Homo sapiens, UniProt O00418); test: Biochemical EF2K lysate-based kinase assay (AlphaLISA p-eEF2 Thr56); conditions: LN-229 cell lysates, 10 mM ATP, pH 6.6; pIC50 = -log IC50 (M); read-out: eEF2K_C_alphalisa pIC50 (converted)
T1 construct: host or cells: LN-229 glioblastoma cell lysate
T1 sequence (O00418 1-725): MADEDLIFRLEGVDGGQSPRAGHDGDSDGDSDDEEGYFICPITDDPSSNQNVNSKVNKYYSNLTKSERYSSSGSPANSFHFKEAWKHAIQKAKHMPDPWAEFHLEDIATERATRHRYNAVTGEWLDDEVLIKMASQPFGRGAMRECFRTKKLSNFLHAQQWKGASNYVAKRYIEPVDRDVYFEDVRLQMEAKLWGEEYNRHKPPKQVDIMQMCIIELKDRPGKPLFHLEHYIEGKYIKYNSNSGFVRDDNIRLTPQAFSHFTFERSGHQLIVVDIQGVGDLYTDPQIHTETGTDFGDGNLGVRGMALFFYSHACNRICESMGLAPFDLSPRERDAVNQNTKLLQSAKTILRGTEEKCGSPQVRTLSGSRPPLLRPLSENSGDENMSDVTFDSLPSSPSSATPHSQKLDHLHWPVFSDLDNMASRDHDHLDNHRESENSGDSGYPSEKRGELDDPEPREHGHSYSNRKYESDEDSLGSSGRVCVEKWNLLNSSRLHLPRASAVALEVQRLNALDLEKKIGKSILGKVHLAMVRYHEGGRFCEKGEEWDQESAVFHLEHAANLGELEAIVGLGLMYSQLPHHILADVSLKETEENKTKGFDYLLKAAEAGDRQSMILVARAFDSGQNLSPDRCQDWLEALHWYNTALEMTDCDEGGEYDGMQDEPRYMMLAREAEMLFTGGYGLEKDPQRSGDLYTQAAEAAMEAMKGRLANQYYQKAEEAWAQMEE
From the text: LN-229 cells were purchased from ATCC (CRL-2611); these are glioblastoma cells. Cell lysates from LN229 were used in this kinase assay to provide both the kinase and the substrate (EF2). The AlphaLISA p-eEF2 (Thr56) detection assay was developed using a sandwich assay format with two specific antibodies recognizing different epitopes of the target, including one antibody against the phosphorylation site of interest. One anti-eEF2 antibody was conjugated onto AlphaLISA Acceptor beads, while the second antibody was biotinylated and captured by streptavidin coated Donor beads.
Compound was mixed with LN-229 cell lysates in the presence of a kinase buffer (e.g. HEPES) at a pH of 6.6, containing 10 mM Mg^2+ (e.g. magnesium acetate) and 10 mM adenosine-tri-phosphate (ATP) and incubated at room temperature for 15 minutes. The kinase reaction was stopped with excess ethylenediaminetetraacetic acid disodium salt and the biotinylated-anti phospho eEF2 antibody (3 nM) was added for 1 hour. Then the anti-EF2 acceptor beads (10 μg/ml) as well as the streptavidin coated donor beads (20 μg/ml) were added for 1 hour, and the AlphaLISA signal was measured in an Envision instrument once, left overnight, and measured again for the final read.

PIK3C3 lipid kinase = PIK3C3 lipid kinase (Homo sapiens, UniProt Q8NEB9); test: Biochemical Vps34 lipid kinase assay (ADP-Glo); conditions: 20 μM ATP; for IC50: serial dilution 10 μM to 0.3 nM, pIC50 = -log IC50 (M); for remaining activity at 1 µM: 1 h, read-out: VPS34_1microM_%ofcntrl; for remaining activity at 1 µM / VPS34_1microM_%ofcntrl: single dose 1 μM, residual activity compared to control (DMSO)
Procedure: A non-radiometric kinase assay (ADP-Glo™ Assay, Promega, Madison, Wi, USA) was used for measuring the kinase activity of the PIK3C3 lipid kinase. All kinase assays were performed in 96-well half-area microtiter plates in a 25 μl reaction volume. The reaction cocktail was pipetted in 3 steps in the following order: • 10 μl of ATP solution (in assay buffer, see below) • 5 μl of test sample in 5% DMSO 10 μl of enzyme/substrate mixture
All lipid kinase assays contained 50 mM HEPES (4-(2-hydroxyethyl)-1-piperazineethanesulfonic acid)—NaOH, pH 7.5, 1 mM EGTA ((ethylene glycol tetraacetic acid), 100 mM NaCl, 0.03% CHAPS (3-[(3-Cholamidopropyl) dimethylammonio]-1-propanesulfonate), 2 mM DTT (Dithiothreitol), 20 μM ATP (corresponding to the apparent ATP-Km), kinase (7.6 nM) and substrate (50 μM). The assay for PIK3C3 additionally contained 3 mM MnCl2.
The reaction cocktails were incubated at 30° C. for 60 minutes. The reaction was stopped with 25 μl ADP-Glo™ reagent per well. Plates were incubated for 40 minutes at room temperature, followed by addition of 50 μl kinase detection reagent per well and incubation for 60 minutes at room temperature. Signal was determined with a microplate luminescence reader (Victor, Perkin Elmer). The assay was either performed using a single dose of compound (1 μM final concentration in the assay reaction) with resulting data expressed as residual activity compared to control (DMSO), or using a serial (half-log) dilution of compounds starting at 10 μM and down to 0.3 nM (final concentrations in the assay) with data expressed as the pIC50.

eEF2K = molecular target: T2, eEF2K (Homo sapiens, UniProt O00418); test: EF2K cell-based assay (P-EF2 AlphaLISA, 2-deoxyglucose stimulated MCF10A cells); conditions: 2.5 mM 2-deoxyglucose 4 h, phosphorylation of EF2 at Thr 56, pIC50 = -log IC50 (M); for IC50: read-out: eEF2K_C_PThr56 pIC50 (converted)
T2 construct: in the immortalized epithelial breast cell lines, MCF10A; host or cells: MCF10A immortalized breast epithelial cells
T2 sequence (O00418 1-725): T1 sequence (O00418 1-725)
Procedure: In this assay, 2.5 mM 2-deoxyglucose was used to deplete intracellular ATP and activate 5′ adenosine monophosphate-activated protein kinase (AMPK) in the immortalized epithelial breast cell lines, MCF10A. MCF 10A cells were purchased from ATCC (CRL-10317).
MCF10A cells are seeded at a density of 1.25×10^5 Cells/ml at 100 μl/well in a 96-well plate and incubated for 24 hours (37° C., 5% CO2). Compound is added for 1 hour, and cell are stimulated with 2.5 mM of 2-deoxy-glucose for 4 hours. Medium is then removed, and cells are lysed in an ice-cold buffer M-PER (Thermo Scientific, 78501), containing protease and phosphatase inhibitors. P-EF2 levels are determined in these lysates using the P-EF2 AlphaLISA described above.

PIK3C3 lipid kinase, sequence (Q8NEB9 whole entry): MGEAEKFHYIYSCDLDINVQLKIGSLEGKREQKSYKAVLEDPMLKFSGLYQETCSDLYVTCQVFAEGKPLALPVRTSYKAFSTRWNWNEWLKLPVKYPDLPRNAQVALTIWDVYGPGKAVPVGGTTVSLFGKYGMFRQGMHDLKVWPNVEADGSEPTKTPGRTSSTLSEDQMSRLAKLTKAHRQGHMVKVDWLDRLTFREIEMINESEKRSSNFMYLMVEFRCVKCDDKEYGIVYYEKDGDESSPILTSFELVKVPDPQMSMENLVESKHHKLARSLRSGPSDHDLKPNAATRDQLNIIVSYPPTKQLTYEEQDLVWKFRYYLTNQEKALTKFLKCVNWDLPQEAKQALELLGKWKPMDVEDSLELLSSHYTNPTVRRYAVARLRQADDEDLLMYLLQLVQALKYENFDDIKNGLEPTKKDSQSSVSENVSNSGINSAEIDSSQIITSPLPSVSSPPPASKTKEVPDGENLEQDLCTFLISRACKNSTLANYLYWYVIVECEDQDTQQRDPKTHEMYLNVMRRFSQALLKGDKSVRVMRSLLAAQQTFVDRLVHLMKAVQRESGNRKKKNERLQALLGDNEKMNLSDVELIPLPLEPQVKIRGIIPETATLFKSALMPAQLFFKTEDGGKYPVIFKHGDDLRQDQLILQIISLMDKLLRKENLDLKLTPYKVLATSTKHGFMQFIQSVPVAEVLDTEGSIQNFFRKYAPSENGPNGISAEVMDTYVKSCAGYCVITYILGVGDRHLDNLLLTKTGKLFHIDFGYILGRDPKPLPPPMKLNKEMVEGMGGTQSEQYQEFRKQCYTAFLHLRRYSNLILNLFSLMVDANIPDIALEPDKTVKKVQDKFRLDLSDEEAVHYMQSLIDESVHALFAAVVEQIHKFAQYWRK

Row | Structure (SMILES) | IC50 (EF2K) [M] | IC50 (PIK3C3 lipid kinase) [M] | IC50 (eEF2K) [M] | remaining activity at 1 µM (PIK3C3 lipid kinase) [%] | VPS34_1microM_%ofcntrl (PIK3C3 lipid kinase) [%] | eEF2K_C_PThr56 pIC50 (eEF2K)
1 | O=C1NCCCNc2ncc(cn2)-c2ccnc(c2)Nc2cccc(c2)CN2CCN(CC2)C1CO (single isomer, unassigned) [Compound 2] | 4.79e-08 | 5.5e-07 | ~2.51e-06 | – | – | –
2 | O=C1NCCCNc2ncc(cn2)-c2ccnc(c2)Nc2cccc(c2)CN2CCN(CC2)C1CO (single isomer, unassigned) [Compound 3] | 1.55e-07 | 2.29e-07 | 5.75e-06 | 15.3 | – | –
3 | COCC1C(=O)NCCCNc2ncc(cn2)-c2ccnc(c2)Nc2cccc(c2)CN2CCN1CC2 (single isomer, unassigned) [Compound 5] | 1.12e-07 | 4.47e-07 | 2.51e-06 | 22.4 | – | –
4 | COCC1C(=O)NCCCNc2ncc(cn2)-c2ccnc(c2)Nc2cccc(c2)CN2CCN1CC2 (single isomer, unassigned) [Compound 6] | 4.47e-08 | 7.59e-07 | 1.12e-06 | – | – | –
5 | O=C1CN2CCN(Cc3cccc(c3)Nc3cc(ccn3)-c3cnc(nc3)NCCCN1)C(CO)C2 (single isomer, unassigned) [Compound 8] | 4.17e-08 | 1.66e-07 | 2.57e-06 | – | 9.64 | –
6 | CC1c2cccc(c2)Nc2cc(ccn2)-c2cnc(nc2)NCCCNC(=O)C2(CC2)N2CCN1CC2 (single isomer, unassigned) [Compound 23] | 9.55e-08 | 1.74e-06 | ~2.95e-06 | – | – | –
7 | O=C1CN2CC3CCC2CN3Cc2cccc(c2)Nc2cc(ccn2)-c2cnc(nc2)NCCCN1 (single isomer, unassigned) [Compound 25] | 2.34e-06 | 6.03e-07 | > 1e-05 | – | – | –
8 | O=C1CN2CC3CCC2CN3Cc2cccc(c2)Nc2cc(ccn2)-c2cnc(nc2)NCCCN1 (single isomer, unassigned) [Compound 26] | 1.07e-06 | 6.61e-08 | – | 4.67 | – | <5
9 | CC1c2cccc(c2)Nc2cc(ccn2)-c2cnc(nc2)N2CC(O)CC2CCNC(=O)C2(CC2)N2CCN1CC2 (single isomer, unassigned) [Compound 65] | 5.62e-09 | 1.95e-07 | 3.8e-07 | – | – | –
10 | CC1c2cccc(c2)Nc2cc(ccn2)-c2cnc(nc2)N2CC(O)CC2CCNC(=O)C2(CC2)N2CCN1CC2 (single isomer, unassigned) [Compound 66] | 6.17e-08 | 1.12e-06 | 9.12e-07 | – | – | –
11 | COC(=O)C1CCNC(=O)CN2CCN(CC2)Cc2cccc(c2)Nc2cc(ccn2)-c2cnc(nc2)N1 (single isomer, unassigned) [Compound 118] | 3.09e-07 | – | 1.55e-05 | 70.6 | – | –
12 | CNC(=O)C1CCNC(=O)CN2CCN(CC2)Cc2cccc(c2)Nc2cc(ccn2)-c2cnc(nc2)N1 (single isomer, unassigned) [Compound 124] | 3.98e-07 | – | ~2.51e-05 | 65.5 | – | –
13 | O=C1CN2CCN(CC2)Cc2cccc(c2)Nc2cc(ccn2)-c2ccc(nc2)N2CCCC2CCN1 (single isomer, unassigned) [Compound 142] | 3.55e-08 | – | 1.58e-06 | 40 | – | –
14 | O=C1CN2CCN(CC2)Cc2cccc(c2)Nc2cc(ccn2)-c2ccc(nc2)N2CCCC2CCN1 (single isomer, unassigned) [Compound 143] | 1.38e-05 | 2.14e-06 | > 3.02e-05 | – | – | –
15 | O=C1CN2CCN(CC2)Cc2cccc(c2F)Nc2cc(ccn2)-c2cnc(nc2)NCCCN1 [Compound 1] | 1.05e-08 | 4.9e-08 | 3.63e-07 | – | – | –
16 | CNC(=O)c1ccc2cc1CN1CCN(CC1)CC(=O)NCCCNc1ncc(cn1)-c1ccnc(c1)N2 [Compound 9] | 3.47e-08 | 1.66e-07 | ~5.5e-06 | 7.1 | – | –
17 | O=C1NCCCNc2ncc(cn2)-c2ccnc(c2)Nc2cccc(c2)CN2CCN(CC2)C12COC2 [Compound 10] | 2.19e-08 | 4.57e-07 | 1.48e-06 | 18.6 | – | –
18 | CN1CCCNc2ncc(cn2)-c2ccnc(c2)Nc2cccc(c2)CN2CCN(CC2)CC1=O [Compound 13] | 6.46e-07 | – | 9.12e-06 | 34.9 | – | –
19 | CN1CCCN(CCCO)c2ncc(cn2)-c2ccnc(c2)Nc2cccc(c2)CN2CCN(CC2)CC1=O [Compound 16] | > 3.02e-05 | – | > 3.02e-05 | 46.1 | – | –
20 | CN1CCN(CCCO)c2ncc(cn2)-c2ccnc(c2)Nc2cccc(c2)CN2CCN(CC2)CC1=O [Compound 17] | > 3.02e-05 | – | > 3.02e-05 | 62.4 | – | –
21 | CC1(C)CN2CCN1CC(=O)NCCCNc1ncc(cn1)-c1ccnc(c1)Nc1cccc(c1)C2 [Compound 18] | 8.71e-08 | 1.74e-07 | 1.05e-06 | 8.79 | – | –
22 | CC1(C)CN2CCN1Cc1cccc(c1)Nc1cc(ccn1)-c1cnc(nc1)NCCCNC(=O)C2 [Compound 19] | 3.39e-08 | 2.88e-07 | 7.08e-07 | – | – | –
23 | O=C1CN2CCN(Cc3cccc(c3)Nc3cc(ccn3)-c3cnc(nc3)NCCCN1)C1(CC1)C2 [Compound 27] | 1.07e-08 | 2.57e-08 | ~1.23e-06 | – | – | –
24 | O=C1CN2CCN(Cc3cccc(c3)Nc3cc(ccn3)-c3cnc(nc3)NCCCN1)CC21CC1 [Compound 28] | 2.24e-05 | > 1e-05 | > 1e-05 | – | – | –
25 | O=C1CN2CCN(CC2)Cc2cccc(c2)Nc2cc(ccn2)-c2cnc(nc2)NCCCN1 [Compound 33] | ~2.19e-08 | 2.19e-07 | ~7.94e-07 | – | – | –
26 | NCCCOCC1CN2CCN1Cc1cccc(c1)Nc1cc(ccn1)-c1cnc(nc1)NCCCNC(=O)C2 (stereo not shown) [Compound 114] | – | 5.13e-07 | > 1e-05 | – | 29.15 | –
27 | NCCCOCC1CN2CCN1Cc1cccc(c1)Nc1cc(ccn1)-c1cnc(nc1)NCCCNC(=O)C2 (stereo not shown) [Compound 148] | – | 9.33e-08 | – | – | 9.53 | <5
